Measurements published in patent US11186576B2, “Pyrazolo[1,5-A][1,3,5]triazine and pyrazolo[1,5-A]pyrimidine derivatives as CDK inhibitors” (Aurigene Discovery Technologies Limited, priority 2015, dated 2021).
Where two headings read alike, the source gives them in different places.

What was measured:
CDK7/CycH/MNAT1 = CDK7/CycH/MNAT1 (Homo sapiens (Human), UniProt P50613); test: Biochemical assay for CDK7 (TR-FRET kinase assay); details: for inhibition at 10 µM: read-out: % inhibition @ 10 μM
Outline: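 CDK7/CycH/MNAT1 (5 nM) was preincubated with compound for 60 min at room temperature, then reacted for 60 min with 100 nM ULight-MBP and 1 mM ATP in 1% DMSO. Irreversibility was probed with 20, 60 and 180 min preincubations.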

[1] = system: RNA polymerase II CTD phosphorylation (MDA-MB-231/NCI-H358 cells); test: Inhibition of RNA polymerase II CTD phosphorylation in cell western assay; assay type: cell-based; details: 4 hours incubation, phospho RNA Pol II Ser-5 or Ser-2
Description: 25000 cells (MDA-MB-231/NCI-H358) were seeded in 96 well black clear bottom plate incubated for overnight before addition of selected compound. 3 fold dilutions of selected compound diluted in DMSO starting from 10 μM, added to cells and incubated for 4 hours at 37° C., 5% CO2 incubator. Cells were washed once with 100 μl of phosphate buffered saline (sigma #P3813), then fixed with 100 μl/well of 4% Para formaldehyde for 60 min at room temperature, in dark. The cells were washed 3 times with 100 μl of wash buffer (PBS with 0.1% Triton-X-100), later blocked for 2 hours at room temperature in blocking buffer (5% BSA in PBST). Cells were stained overnight at 4° C. with Phospho RNA Pol II (S5) (Millipore #04-1572, Abcam #5131) or Phospho RNA Pol II (Ser-2), antibody (Bethyl labs #A300-654-A) in blocking buffer. Post incubation cells were washed with Delifia wash buffer (Perkin Elmer #4010-0010). Cells were treated with LANCE secondary antibodies (LANCE® Eu-W1024 perkin elmer #AD-0076 for phospho Ser-5 CTD RNA pol-II and Delfia Eu-N1 anti rabbit IgG Perkin elmer #AD0106 for phospho Ser-2 CTD RNA pol-II) for 2 hours in assay buffer (Perkin Elmer #1244-111), Cells were washed 3 times with Delfia wash buffer post incubation, Enhancement solution (Perkin Elmer #1244-105) added and incubated for 20 mins. Europium readings were taken in Victor-3 instrument. Cell normalization was done using Hoechst dye (0.5 μg/ml).
Selected compounds were screened in the above mentioned assay procedure. The EC50 values are summarised in the below table; wherein group “A” refers to an EC50 value of less than or equal to 1 μM, group “B” refers to EC50 value in range of 1 to 10 μM and group “C” refers to EC50 value of greater than 10 μM.

[2] = 10 μM compound, 60 min pre-incubation, 1 mM ATP
[3] = 60 min pre-incubation, 1 mM ATP, read-out: IC50

CDK7/CycH/MNAT1, sequence (P50613 whole entry): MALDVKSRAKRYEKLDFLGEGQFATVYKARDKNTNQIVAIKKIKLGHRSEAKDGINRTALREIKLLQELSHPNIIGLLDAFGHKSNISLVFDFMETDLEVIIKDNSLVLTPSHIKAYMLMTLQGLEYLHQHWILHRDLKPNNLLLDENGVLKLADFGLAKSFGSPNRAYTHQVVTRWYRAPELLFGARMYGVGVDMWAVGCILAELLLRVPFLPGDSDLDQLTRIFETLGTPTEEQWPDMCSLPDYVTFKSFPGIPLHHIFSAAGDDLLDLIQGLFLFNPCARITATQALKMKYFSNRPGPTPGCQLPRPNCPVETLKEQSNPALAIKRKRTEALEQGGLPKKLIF
CDK7/CycH/MNAT1, sequence (P51946 whole entry partner): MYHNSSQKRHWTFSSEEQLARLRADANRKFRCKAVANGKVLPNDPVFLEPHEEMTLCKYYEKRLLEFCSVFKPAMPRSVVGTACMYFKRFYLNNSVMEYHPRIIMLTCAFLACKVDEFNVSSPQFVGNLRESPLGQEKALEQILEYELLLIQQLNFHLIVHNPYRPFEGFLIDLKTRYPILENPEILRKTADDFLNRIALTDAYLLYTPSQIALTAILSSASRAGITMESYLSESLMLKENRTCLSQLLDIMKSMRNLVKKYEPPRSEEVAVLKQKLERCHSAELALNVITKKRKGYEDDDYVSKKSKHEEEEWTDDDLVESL
CDK7/CycH/MNAT1, sequence (P51948 whole entry partner): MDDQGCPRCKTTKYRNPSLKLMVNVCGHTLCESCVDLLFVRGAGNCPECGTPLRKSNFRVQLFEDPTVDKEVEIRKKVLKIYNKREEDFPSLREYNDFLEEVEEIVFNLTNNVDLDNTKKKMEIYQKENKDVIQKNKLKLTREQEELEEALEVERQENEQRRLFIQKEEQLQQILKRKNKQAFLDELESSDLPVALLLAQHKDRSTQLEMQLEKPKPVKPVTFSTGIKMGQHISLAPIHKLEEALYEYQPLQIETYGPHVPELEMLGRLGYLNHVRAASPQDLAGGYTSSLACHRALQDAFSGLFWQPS

inhibition at 10 µM (CDK7/CycH/MNAT1; [2]) [%] | IC50 (CDK7/CycH/MNAT1; [3]) [nM] | Structure (SMILES) | further results
94 | < 300 | C=CC(=O)N1CCC(C(=O)Nc2cccc(CNc3nc(NC4CCOCC4)nc4c(C(C)C)cnn34)c2)C1 (single isomer, unassigned) [Compound 5, 1-acryloyl-N-(3-(((8-isopropyl-2-((tetrahydro-2H-pyran-4-yl)amino)pyrazolo[1,5-a][1,3,5]triazin-4-yl)amino)methyl)phenyl)pyrrolidine-3-carboxamide] | EC50 [1]: 1000 to 10000 nM
 | < 300 | C=CC(=O)N1CCC(C(=O)Nc2cccc(CNc3nc(NC4CCOCC4)nc4c(C(C)C)cnn34)c2)C1 (single isomer, unassigned) [Compound 6, 1-acryloyl-N-(3-(((8-isopropyl-2-((tetrahydro-2H-pyran-4-yl)amino)pyrazolo[1,5-a][1,3,5]triazin-4-yl)amino)methyl)phenyl)pyrrolidine-3-carboxamide] | % inhibition @ 10 μM (CDK7/CycH/MNAT1; [2]): 91%; EC50 [1]: 1000 to 10000 nM
 | 300 to 1000 | C=CC(=O)N1CCC(C(=O)Nc2cccc(CNc3nc(NC4CCCC(O)C4)nc4c(C(C)C)cnn34)c2)C1 (single isomer, unassigned) [Compound 13, 1-acryloyl-N-(3-(((2-((3-hydroxycyclohexyl)amino)-8-isopropylpyrazolo[1,5-a][1,3,5]triazin-4-yl)amino)methyl)phenyl)pyrrolidine-3-carboxamide] | % inhibition @ 10 μM (CDK7/CycH/MNAT1; [2]): 93%; EC50 [1]: 1000 to 10000 nM
98 | < 300 | C=CC(=O)N1CCC(C(=O)Nc2cccc(CNc3nc(OC4CCN(C)CC4)nc4c(C(C)C)cnn34)c2)C1 (single isomer, unassigned) [Compound 109, 1-acryloyl-N-(3-(((8-isopropyl-2-((1-methylpiperidin-4-yl)oxy)pyrazolo[1,5-a][1,3,5]triazin-4-yl)amino)methyl)phenyl)pyrrolidine-3-carboxamide] | EC50 [1]: 1000 to 10000 nM
99 | < 300 | C=CC(=O)N1CCOC(C(=O)Nc2cccc(CNc3nc(OC4CCN(C)CC4)nc4c(C(C)C)cnn34)c2)C1 (centres unmarked) [Compound 112, 4-acryloyl-N-(3-(((8-isopropyl-2-((1-methylpiperidin-4-yl)oxy)pyrazolo[1,5-a][1,3,5]triazin-4-yl)amino)methyl)phenyl)morpholine-2-carboxamide] | 
 | < 300 | C=CC(=O)N1CCOCC1C(=O)Nc1cccc(CNc2nc(OC3CCN(C)CC3)nc3c(C(C)C)cnn23)c1 (centres unmarked) [Compound 113, 4-acryloyl-N-(3-(((8-isopropyl-2-((1-methylpiperidin-4-yl)oxy)pyrazolo[1,5-a][1,3,5]triazin-4-yl)amino)methyl)phenyl)morpholine-3-carboxamide] | 
93 | 300 to 1000 | C=CC(=O)N[C@H]1CC[C@@H](C(=O)Nc2cc(CNc3nc(OC4CCN(C)CC4)nc4c(C(C)C)cnn34)ccc2F)CC1 [Compound 118, (1,4-cis)-4-acrylamido-N-(2-fluoro-5-(((8-isopropyl-2-((1-methylpiperidin-4-yl)oxy)pyrazolo[1,5-a][1,3,5]triazin-4-yl)amino)methyl)phenyl)cyclohexane-1-carboxamide] | 
93 | < 300 | C=CC(=O)N1CCCC(C(=O)Nc2ccc(CNc3nc(OC4CCN(C)CC4)nc4c(C(C)C)cnn34)c[n+]2[O-])C1 (centres unmarked) [Compound 120, 2-(1-acryloylpiperidine-3-carboxamido)-5-(((8-isopropyl-2-((1-methylpiperidin-4-yl)oxy)pyrazolo[1,5-a][1,3,5]triazin-4-yl)amino)methyl)pyridine 1-oxide] | 
 |  | C=CC(=O)N1CCN(C(=O)Oc2cccc(CNc3nc(OC4CCN(C)CC4)nc4c(C(C)C)cnn34)c2)CC1 [Compound 121, 3-(((8-isopropyl-2-((1-methylpiperidin-4-yl)oxy)pyrazolo[1,5-a][1,3,5]triazin-4-yl)amino)methyl)phenyl 4-acryloylpiperazine-1-carboxylate] | IC50 (CDK7/CycH/MNAT1; IC50, 60 min pre-incubation, 1 mM ATP): < 300 nM; inhibition at 10 µM (CDK7/CycH/MNAT1): 93%
96 | < 300 | CC(C)c1cnn2c(NCc3ccc(F)c(NC(=O)C4CCCN(C(=O)/C=C/CN(C)C)C4)c3)nc(OC3CCN(C)CC3)nc12 (centres unmarked) [Compound 123, (E)-1-(4-(dimethylamino)but-2-enoyl)-N-(2-fluoro-5-(((8-isopropyl-2-((1-methylpiperidin-4-yl)oxy)pyrazolo[1,5-a][1,3,5]triazin-4-yl)amino)methyl)phenyl)piperidine-3-carboxamide] | 
80 |  | C=CC(=O)NC1CCC(C(=O)Nc2cccc(Nc3nc(OC4CCN(C)CC4)nc4c(C(C)C)cnn34)c2)CC1 (stereo not drawn) [Compound 126, (1,4-cis)-4-acrylamido-N-(3-((8-isopropyl-2-((1-methylpiperidin-4-yl)oxy)pyrazolo[1,5-a][1,3,5]triazin-4-yl)amino)phenyl)cyclohexane-1-carboxamide] | 
 | > 1000 | C=CC(=O)N[C@H]1CC[C@@H](C(=O)Nc2cccc(Nc3nc(OC4CCN(C)CC4)nc4c(C(C)C)cnn34)c2)CC1 [Compound 126, (1,4-cis)-4-acrylamido-N-(3-((8-isopropyl-2-((1-methylpiperidin-4-yl)oxy)pyrazolo[1,5-a][1,3,5]triazin-4-yl)amino)phenyl)cyclohexane-1-carboxamide] | 
95 | < 300 | C=CC(=O)N1CCC(C(=O)Nc2cccc(Nc3nc(OC4CCN(C)CC4)nc4c(C(C)C)cnn34)c2)CC1 [Compound 127, 1-acryloyl-N-(3-((8-isopropyl-2-((1-methylpiperidin-4-yl)oxy)pyrazolo[1,5-a][1,3,5]triazin-4-yl)amino)phenyl)piperidine-4-carboxamide] | 
97 | < 300 | CC(C)c1cnn2c(Nc3cccc(C(=O)NC4CCCN(C(=O)/C=C/CN(C)C)C4)c3)nc(OC3CCN(C)CC3)nc12 (centres unmarked) [Compound 133, (E)-N-(1-(4-(dimethylamino)but-2-enoyl)piperidin-3-yl)-3-((8-isopropyl-2-((1-methylpiperidin-4-yl)oxy)pyrazolo[1,5-a][1,3,5]triazin-4-yl)amino)benzamide] | 
97 | < 300 | CC(C)c1cnn2c(NCc3cccc(NC(=O)[C@H]4CC[C@@H](NC/C=C/C(=O)N(C)C)CC4)c3)nc(OC3CCN(C)CC3)nc12 [Compound 135, (1s,4s)-4-(((E)-4-(dimethylamino)-4-oxobut-2-en-1-yl)amino)-N-(3-(((8-isopropyl-2-((1-methylpiperidin-4-yl)oxy)pyrazolo[1,5-a][1,3,5]triazin-4-yl)amino)methyl)phenyl)cyclohexane-1-carboxamide] | 
73 | > 1000 | C=CC(=O)N1CCC(C(=O)Nc2cccc(CNc3nc(OC)nc4c(C(C)C)cnn34)c2)CC1 [Compound 136, 1-acryloyl-N-(3-(((8-isopropyl-2-methoxypyrazolo[1,5-a][1,3,5]triazin-4-yl)amino)methyl)phenyl)piperidine-4-carboxamide] | 
64 | > 1000 | CC(C)c1cnn2c(NCC3CCN(C(=O)/C=C/CN4CCCC4)CC3)nc(NC3CCOCC3)nc12 [Compound 138, (E)-1-(4-(((8-isopropyl-2-((tetrahydro-2H-pyran-4-yl)amino)pyrazolo[1,5-a][1,3,5]triazin-4-yl)amino)methyl)piperidin-1-yl)-4-(pyrrolidin-1-yl)but-2-en-1-one] | 
98 | < 300 | C=CC(=O)N1CCC1C(=O)Nc1cccc(CNc2cc(NC3CCOCC3)nc3c(C(C)C)cnn23)c1 (centres unmarked) [Compound 139, 1-acryloyl-N-(3-(((3-isopropyl-5-((tetrahydro-2H-pyran-4-yl)amino)pyrazolo[1,5-a]pyrimidin-7-yl)amino)methyl)phenyl)azetidine-2-carboxamide] | 

Structure (SMILES) | inhibition at 10 µM (CDK7/CycH/MNAT1; [2]) [%] | IC50 (CDK7/CycH/MNAT1; [3]) [nM] | further results
CC(C)c1cnn2c(Nc3cccc(NC(=O)c4ccc(NC(=O)/C=C/CN(C)C)cc4)c3)nc(OC3CCN(C)CC3)nc12 [Compound 130, (E)-4-(4-(dimethylamino)but-2-enamido)-N-(3-((8-isopropyl-2-((1-methylpiperidin-4-yl)oxy)pyrazolo[1,5-a][1,3,5]triazin-4-yl)amino)phenyl)benzamide] |  | < 300 | inhibition at 10 µM (CDK7/CycH/MNAT1): 97%
CC(C)c1cnn2c(NCc3ccccc3N3CCN(C(=O)/C=C/CN(C)C)CC3)nc(NC3CCOCC3)nc12 [Compound 137, (E)-4-(dimethylamino)-1-(4-(2-(((8-isopropyl-2-((tetrahydro-2H-pyran-4-yl)amino)pyrazolo[1,5-a][1,3,5]triazin-4-yl)amino)methyl)phenyl)piperazin-1-yl)but-2-en-1-one] | 99 | < 300 | 
